{
  "source": "patent US5968910A",
  "about": "“Compositions containing two or three inhibitors of different HIV reverse transcriptases” (priority 1994, dated 1999)",
  "tested_on": "HIV-1",
  "assay": "Breakthrough of mutant HIV-1 strains in CEM cell cultures, single drugs and double/triple combinations",
  "type": "cell-based",
  "conditions": "for activity at 0.04 µg/mL / activity at 0.1 µg/mL / activity at 0.25 µg/mL: Human immunodeficiency virus 1, CCRF-CEM, read-out: HIV-1-induced syncytium formation in CEM cells; for activity at 0.04 µg/mL: single drug 0.04 μg/ml; for activity at 0.1 µg/mL: single drug 0.10 μg/ml; for activity at 0.25 µg/mL: single drug 0.25 μg/ml",
  "method": "The culture medium consisted of RPMI 1640 containing 10% fetal bovine serum, 2 mM L-glutamine, and 0.075% NaHCO3. The multiplicity of the initial infection was ~1000 times the CCID50 (50% cell culture infective dose). Passages were performed every 3 to 4 days by adding 0.5 to 1.0 ml of the infected culture supernatant to 5 ml of a suspension containing 4×10^5 uninfected CEM cells per ml. Syncytium formation was used as a parameter of virus breakthrough in the cell cultures. In the drug combination experiments, the compounds were combined at the same initial concentrations as used for the two lowest concentrations in the single-drug experiments.\nCompound IV, BHAP and TSAO-m^3 T were added to HIV-1-infected CEM cell cultures at 0.04, 0.10 and 0.25 ug/ml (Compound IV and BHAP) or 1.0, 2.5 and 5.0 μg/ml (TSAO-m^3 T). In addition, various double- and triple-drug combinations of Compound IV, BHAP and TSAO-m^3 T were performed, combining these inhibitors at their lowest (0.04 μg/ml) or intermediary (0.1 μg/ml) concentration as used in the single-drug experiments.",
  "note": "Where two headings read alike, the source gives them in different places.",
  "data": [
    {"smiles": "Cc1occc1C(=S)Nc1ccc(Cl)c(C(=O)OC2CCCC2)c1", "note": "[Compound IV]", "values": [
      {"measurement": "activity at 0.04 µg/mL", "setting": "96 h, day 4 post infection", "result": 0, "unit": "%"},
      {"measurement": "activity at 0.1 µg/mL", "setting": "96 h, day 4 post infection", "result": 0, "unit": "%"},
      {"measurement": "activity at 0.25 µg/mL", "setting": "96 h, day 4 post infection", "result": 0, "unit": "%"},
      {"measurement": "activity at 0.04 µg/mL", "setting": "168 h, day 7 post infection", "result": 0, "unit": "%"},
      {"measurement": "activity at 0.1 µg/mL", "setting": "168 h, day 7 post infection", "result": 0, "unit": "%"},
      {"measurement": "activity at 0.25 µg/mL", "setting": "168 h, day 7 post infection", "result": 0, "unit": "%"},
      {"measurement": "activity at 0.04 µg/mL", "setting": "264 h, day 11 post infection", "result": 6.25, "unit": "%"},
      {"measurement": "activity at 0.1 µg/mL", "setting": "264 h, day 11 post infection", "result": 0, "unit": "%"},
      {"measurement": "activity at 0.25 µg/mL", "setting": "264 h, day 11 post infection", "result": 0, "unit": "%"},
      {"measurement": "activity at 0.04 µg/mL", "setting": "336 h, day 14 post infection", "result": 12.5, "unit": "%"},
      {"measurement": "activity at 0.1 µg/mL", "setting": "336 h, day 14 post infection", "result": 6.25, "unit": "%"},
      {"measurement": "activity at 0.25 µg/mL", "setting": "336 h, day 14 post infection", "result": 0, "unit": "%"},
      {"measurement": "activity at 0.04 µg/mL", "setting": "432 h, day 18 post infection", "result": 100, "unit": "%"},
      {"measurement": "activity at 0.1 µg/mL", "setting": "432 h, day 18 post infection", "result": 6.25, "unit": "%"},
      {"measurement": "activity at 0.25 µg/mL", "setting": "432 h, day 18 post infection", "result": 0, "unit": "%"},
      {"measurement": "activity at 0.04 µg/mL", "setting": "504 h, day 21 post infection", "result": 100, "unit": "%"},
      {"measurement": "activity at 0.1 µg/mL", "setting": "504 h, day 21 post infection", "result": 87.5, "unit": "%"},
      {"measurement": "activity at 0.25 µg/mL", "setting": "504 h, day 21 post infection", "result": 3.12, "unit": "%"},
      {"measurement": "activity at 0.04 µg/mL", "setting": "600 h, day 25 post infection", "result": 100, "unit": "%"},
      {"measurement": "activity at 0.1 µg/mL", "setting": "600 h, day 25 post infection", "result": 87.5, "unit": "%"},
      {"measurement": "activity at 0.25 µg/mL", "setting": "600 h, day 25 post infection", "result": 19, "unit": "%"},
      {"measurement": "activity at 0.04 µg/mL", "setting": "672 h, day 28 post infection", "result": 100, "unit": "%"},
      {"measurement": "activity at 0.1 µg/mL", "setting": "672 h, day 28 post infection", "result": 100, "unit": "%"},
      {"measurement": "activity at 0.25 µg/mL", "setting": "672 h, day 28 post infection", "result": 75, "unit": "%"},
      {"measurement": "activity at 0.04 µg/mL", "setting": "768 h, day 32 post infection", "result": 100, "unit": "%"},
      {"measurement": "activity at 0.1 µg/mL", "setting": "768 h, day 32 post infection", "result": 100, "unit": "%"},
      {"measurement": "activity at 0.25 µg/mL", "setting": "768 h, day 32 post infection", "result": 100, "unit": "%"},
      {"measurement": "activity at 0.04 µg/mL", "setting": "840 h, day 35 post infection", "result": 100, "unit": "%"},
      {"measurement": "activity at 0.1 µg/mL", "setting": "840 h, day 35 post infection", "result": 100, "unit": "%"},
      {"measurement": "activity at 0.25 µg/mL", "setting": "840 h, day 35 post infection", "result": 100, "unit": "%"},
      {"measurement": "activity at 0.04 µg/mL", "setting": "936 h, day 39 post infection", "result": 100, "unit": "%"},
      {"measurement": "activity at 0.1 µg/mL", "setting": "936 h, day 39 post infection", "result": 100, "unit": "%"},
      {"measurement": "activity at 0.25 µg/mL", "setting": "936 h, day 39 post infection", "result": 100, "unit": "%"},
      {"measurement": "activity at 0.04 µg/mL", "setting": "1008 h, day 42 post infection", "result": 100, "unit": "%"},
      {"measurement": "activity at 0.1 µg/mL", "setting": "1008 h, day 42 post infection", "result": 100, "unit": "%"},
      {"measurement": "activity at 0.25 µg/mL", "setting": "1008 h, day 42 post infection", "result": 100, "unit": "%"},
      {"measurement": "activity at 0.04 µg/mL", "setting": "1104 h, day 46 post infection", "result": 100, "unit": "%"},
      {"measurement": "activity at 0.1 µg/mL", "setting": "1104 h, day 46 post infection", "result": 100, "unit": "%"},
      {"measurement": "activity at 0.25 µg/mL", "setting": "1104 h, day 46 post infection", "result": 100, "unit": "%"},
      {"measurement": "activity at 0.04 µg/mL", "setting": "1176 h, day 49 post infection", "result": 100, "unit": "%"},
      {"measurement": "activity at 0.1 µg/mL", "setting": "1176 h, day 49 post infection", "result": 100, "unit": "%"},
      {"measurement": "activity at 0.25 µg/mL", "setting": "1176 h, day 49 post infection", "result": 100, "unit": "%"},
      {"measurement": "activity at 0.04 µg/mL", "setting": "1272 h, day 53 post infection", "result": 100, "unit": "%"},
      {"measurement": "activity at 0.1 µg/mL", "setting": "1272 h, day 53 post infection", "result": 100, "unit": "%"},
      {"measurement": "activity at 0.25 µg/mL", "setting": "1272 h, day 53 post infection", "result": 100, "unit": "%"},
      {"measurement": "activity at 0.04 µg/mL", "setting": "1344 h, day 56 post infection", "result": 100, "unit": "%"},
      {"measurement": "activity at 0.1 µg/mL", "setting": "1344 h, day 56 post infection", "result": 100, "unit": "%"},
      {"measurement": "activity at 0.25 µg/mL", "setting": "1344 h, day 56 post infection", "result": 100, "unit": "%"},
      {"measurement": "activity at 0.04 µg/mL", "setting": "1440 h, day 60 post infection", "result": 100, "unit": "%"},
      {"measurement": "activity at 0.1 µg/mL", "setting": "1440 h, day 60 post infection", "result": 100, "unit": "%"},
      {"measurement": "activity at 0.25 µg/mL", "setting": "1440 h, day 60 post infection", "result": 100, "unit": "%"},
      {"measurement": "activity at 0.04 µg/mL", "setting": "1536 h, day 64 post infection", "result": 100, "unit": "%"},
      {"measurement": "activity at 0.1 µg/mL", "setting": "1536 h, day 64 post infection", "result": 100, "unit": "%"},
      {"measurement": "activity at 0.25 µg/mL", "setting": "1536 h, day 64 post infection", "result": 100, "unit": "%"},
      {"measurement": "activity at 0.04 µg/mL", "setting": "1608 h, day 67 post infection", "result": 100, "unit": "%"},
      {"measurement": "activity at 0.1 µg/mL", "setting": "1608 h, day 67 post infection", "result": 100, "unit": "%"},
      {"measurement": "activity at 0.25 µg/mL", "setting": "1608 h, day 67 post infection", "result": 100, "unit": "%"},
      {"measurement": "activity at 0.04 µg/mL", "setting": "1704 h, day 71 post infection", "result": 100, "unit": "%"},
      {"measurement": "activity at 0.1 µg/mL", "setting": "1704 h, day 71 post infection", "result": 100, "unit": "%"},
      {"measurement": "activity at 0.25 µg/mL", "setting": "1704 h, day 71 post infection", "result": 100, "unit": "%"},
      {"measurement": "activity at 0.04 µg/mL", "setting": "1776 h, day 74 post infection", "result": 100, "unit": "%"},
      {"measurement": "activity at 0.1 µg/mL", "setting": "1776 h, day 74 post infection", "result": 100, "unit": "%"},
      {"measurement": "activity at 0.25 µg/mL", "setting": "1776 h, day 74 post infection", "result": 100, "unit": "%"},
      {"measurement": "activity at 0.04 µg/mL", "setting": "1848 h, day 77 post infection", "result": 100, "unit": "%"},
      {"measurement": "activity at 0.1 µg/mL", "setting": "1848 h, day 77 post infection", "result": 100, "unit": "%"},
      {"measurement": "activity at 0.25 µg/mL", "setting": "1848 h, day 77 post infection", "result": 100, "unit": "%"},
      {"measurement": "virus breakthrough delayed till day", "setting": "single drug, highest concentration", "result": 21, "unit": "days"}
    ]}
  ]
}
